Bridge positions count the residues as written; N and C are the ends. Square brackets hold non-standard residues; d marks the D form. Peptide text beside a SMILES is read from it. * marks the point of attachment. Ileψ(thiazoline)Cys = CC[C@H](C)[C@H](N)C1=N[C@H](C(=O)*)CS1; dOrn = NCCC[C@@H](N)C(=O)O

For test [1], the system named is liaI expression (pMUTIN-derived lacZ fusion, strain BFS2470). As to the kind of experiment: microbe, parasite or virus in culture. Conditions: Bacillus subtilis, 0.5 h, read-out: fold induction of liaI expression. The method, then: Disc-diffusion assays were used to determine the spectrum of stimuli that induce the expression of liaIH. The B. subtilis strains BFS2469 and BFS2470 (Table 2), harboring pMUTIN-insertions in liaH and liaI respectively, were plated on a medium containing the indicator dye X-gal and overlaid with filter disks impregnated with various antibiotics that interfere with cell wall biosynthesis. Specifically, cultures of B. subtilis strain BFS2469 (liaH::pMUTIN) and BFS2470 (liaI::pMUTIN) were grown in LB medium to midlog phase, 2 mL for the un-induced control sample were harvested, and the remaining culture was induced with the three antibiotics for 30 minutes, before the cells of the induced sample were harvested. All samples were taken in duplicate from two independent cultures and the standard deviation is indicated by error bars.
Measurement of induction by β-galactosidase assays: Cells were inoculated from fresh overnight LB-plates and grown in LB-medium at 37° C. with aeration until they reached an O.D.600=0.45. 2 mL of cultures were harvested (un-induced control) and the cell pellets were shock frozen and kept at −70° C. The cultures were induced by addition of antibiotics to a final concentration of: bacitracin (100 μg/mL), tunicamycin (50 μg/mL) or vancomycin (2 μg/mL) and incubated for additional 30 min at 37° C. 2 mL of the cultures were harvested as described above (induced sample). The pellets were re-suspended in 1 mL of working buffer and assayed for β-galactosidase activity as described with normalization to cell density (Miller, 1972, the entire teaching of which is incorporated herein by reference).
For quantitative measurements of β-galactosidase activity, cells were inoculated from fresh overnight LB-plates and grown in LB medium at 37 YC with aeration until they reached an OD600 of 0.45. 2 ml of the culture was harvested (un-induced control) and the cell pellets were frozen and kept at −80 YC. The cultures were induced by addition of the compound to be tested to the final concentration as described in the individual figure legends and incubated for an additional 30 min at 37 YC. 2 ml of the cultures were harvested as described above. The pellets were re-suspended in 1 ml of working buffer (60 mM Na2HPO4, 40 mMNaH2PO4, 10 mM KCl, 1 mM MgSO4, 4 mM DTT) and assayed for β-galactosidase activity as described with normalization to cell density Kobayashi, K., et al., 2001, J Bacteriol 183:7365-7370). […] A sample was taken after 30 min for β-galactosidase assay and the turbidity of the remaining culture was measured for at least 5 hours to monitor the concentration-dependent effects of the antibiotics on cell growth.

The test system of test [2] is liaH expression (liaH::pMUTIN, strain BFS2469). As to the kind of experiment: Quantitative β-galactosidase assay, strain BFS2469. Conditions: bacitracin 100 μg/mL, 30 minutes. It is filed as cell-based, Bacillus subtilis.

Take `CC[C@H](C)[C@H](N)C1=N[C@H](C(=O)N[C@@H](CC(C)C)C(=O)N[C@H](CCC(=O)O)C(=O)N[C@H](C(=O)N[C@H]2CCCCNC(=O)[C@H](CC(N)=O)NC(=O)[C@@H](CC(=O)O)NC(=O)[C@H](Cc3cnc[nH]3)NC(=O)[C@@H](Cc3ccccc3)NC(=O)[C@H]([C@@H](C)CC)NC(=O)[C@@H](CCCN)NC2=O)[C@@H](C)CC)CS1` [Bacitracin] ({Ileψ(thiazoline)Cys}-L[dE]IK[dOrn]I[dF]H[dD]N; lactam 4-C): the fold induction at 100 µg/mL in test [1] is more than 500. Also, the “fold increase in liaH expression” value in test [2] was 90 fold.
